Laboratory results from the supplement of paper PMC10702517.
± gives the standard deviation.

How the values were obtained:
[1] = chemical recovery from spiked human plasma; higher = better extraction; conditions: pooled human plasma
[2] = chemical recovery into PDMS from spiked human plasma; higher = better extraction; conditions: pooled human plasma, extraction method: PES with PDMS
[3] = chemical recovery by SPE of plasma after PDMS sampling; higher = better extraction; conditions: pooled human plasma, extraction method: HLB SPE of plasma after PES
[4] = extraction method: PES+SPE (3 d PDMS equilibration then HLB SPE)
[5] = extraction method: SPE only (HLB 96-well)
[6] = extraction method: SPE only (HLB 96-well), PES comparison experiment
[7] = extraction method: solvent precipitation (ACN + hexane)
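Throughout, for chemical recovery by SPE of plasma after PDMS sampling: over 400 spiked chemicals quantified by LC-HRMS or GC-HRMS via internal standard calibration, recovery relative to spike mix added to unspiked plasma extract to correct matrix effects.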

| SMILES | chemical recovery [1, 4] [%] | chemical recovery [1, 5] [%] | chemical recovery [1, 6] [%] | chemical recovery [1, 7] [%] | chemical recovery into PDMS ([2]; equilibration time (d): 1) [%] | chemical recovery into PDMS ([2]; equilibration time (d): 3) [%] | chemical recovery into PDMS ([2]; equilibration time (d): 6) [%] | chemical recovery by SPE of plasma ([3]; equilibration time (d): 1) [%] | chemical recovery by SPE of plasma ([3]; equilibration time (d): 3) [%] | chemical recovery by SPE of plasma ([3]; equilibration time (d): 6) [%] |
| --- | --- | --- | --- | --- | --- | --- | --- | --- | --- | --- |
| CCNc1nc(Cl)nc(NC(C)(C)C)n1 [Terbuthylazine] | 64.8 ± 10 | 61.8 ± 2.3 | 45.8 ± 8 | 69.5 ± 7.1 | 37 ± 1 | 41.3 ± 3.5 | 41.4 ± 1.7 | 1.41 ± 0.15 | 1.28 ± 0.32 | 0.724 ± 0.021 |
| CCNc1nc(NC(C)(C)C)nc(SC)n1 [Terbutryn] | – | 46.2 ± 2.5 | 48.2 ± 6.7 | 68.8 ± 3.2 | 21.7 ± 8.2 | 21.5 ± 6.8 | 22.9 ± 3.2 | 1.3 ± 0.11 | 1.01 ± 0.25 | 0.516 ± 0.03 |
| C[C@]12CC[C@H]3[C@@H](CCC4=CC(=O)CC[C@@]43C)[C@@H]1CC[C@@H]2O [Testosterone] | – | – | 52.8 ± 8.8 | – | 29.7 ± 1.9 | 35.7 ± 2.2 | 35.6 ± 0.61 | 16 ± 3.3 | 14.5 ± 1.6 | 8.83 ± 2.7 |
| NC(=O)/N=C1\SCCN1Cc1ccc(Cl)nc1 [Thiacloprid amide] | 42.5 ± 3.4 | 33.6 ± 3.3 | 51.2 ± 7 | 78 ± 3.3 | 2.46 ± 0.75 | 4 ± 1.4 | 4.83 ± 0.88 | 51.1 ± 5.3 | 53.4 ± 4.1 | 47 ± 2.8 |
| N#C/N=C1\SCCN1Cc1ccc(Cl)nc1 [Thiacloprid] | 55.5 ± 5.8 | 43.4 ± 3.5 | 55.7 ± 4.2 | 79.2 ± 2.9 | 18.1 ± 1.4 | 26.3 ± 4.2 | 29.8 ± 2.2 | 39.3 ± 6 | 33.4 ± 2.5 | 25.1 ± 4.8 |
| CC(=O)c1cc2c(cc1C)C(C)(C)C(C)CC2(C)C (stereo not drawn) [Tonalide] | 41.1 ± 12 | 17.1 ± 5 | 22.3 ± 6.1 | – | 49 ± 3.7 | 48.1 ± 5.2 | 55.1 ± 2.9 | 0.526 ± 0.91 | – | – |
| O=C(Nc1ccc(Cl)cc1)Nc1ccc(Cl)c(Cl)c1 [Triclocarban] | – | 35 ± 5 | 25.7 ± 4.4 | 55.4 ± 4.4 | 5.9 ± 0.44 | 7.7 ± 0.6 | 8.27 ± 0.72 | 29.8 ± 8.2 | 28.2 ± 4.9 | 24.3 ± 4 |
| Oc1cc(Cl)ccc1Oc1ccc(Cl)cc1Cl [Triclosan] | 49.8 ± 4.3 | 34.5 ± 1.1 | 40.3 ± 7.5 | 40 ± 3.5 | 16 ± 1.1 | 21 ± 0.84 | 22 ± 1.5 | 24.8 ± 8.3 | 23.5 ± 2 | 20.2 ± 3.3 |
| CCOC(=O)CC(O)(CC(=O)OCC)C(=O)OCC [Triethylcitrate] | 32.4 ± 8.6 | 38.1 ± 0.71 | 43.2 ± 5 | – | 23.6 ± 0.89 | 23.1 ± 3.8 | 26.2 ± 2.7 | 18.1 ± 0.54 | 26.1 ± 4.4 | 17 ± 1.2 |
| CCOP(=O)(OCC)OCC [Triethylphosphate] | – | 18.9 ± 3.4 | 16.6 ± 7.5 | – | – | – | 15 ± 4.8 | 12.1 ± 7 | 15.8 ± 2.1 | 6.74 ± 1.1 |
| O=P(c1ccccc1)(c1ccccc1)c1ccccc1 [Triphenylphosphine oxide] | 58.6 ± 6.1 | 54.9 ± 1.4 | 51.6 ± 7.2 | – | 41 ± 1.5 | 44.6 ± 2.8 | 43.5 ± 1.5 | 8.28 ± 1.2 | 8.53 ± 0.92 | 6.26 ± 0.28 |
| CCCOP(=O)(OCCC)OCCC [Tripropyl phosphate] | – | 35 ± 7.1 | 26.4 ± 7.2 | – | 29.8 ± 6.3 | 35.3 ± 6.6 | 33.8 ± 2.4 | 1.52 ± 1 | 1.74 ± 0.42 | 1.1 ± 0.16 |
| CC(CCl)OP(=O)(OC(C)CCl)OC(C)CCl (stereo not drawn) [Tris(1-chloro-2-propyl)phosphate] | – | – | 55 ± 8.9 | – | 34.1 ± 1.8 | 44.3 ± 3.9 | 43.7 ± 3.3 | – | 1.7 ± 2 | 3.1 ± 2.4 |
| O=P(OCCCl)(OCCCl)OCCCl [Tris(2-chloroethyl)phosphate] | 52.1 ± 4.5 | 47.4 ± 2.1 | 52.3 ± 5.5 | 69.9 ± 2.8 | 37.5 ± 1.4 | 39.8 ± 1.5 | 40.8 ± 2.8 | 15 ± 1.6 | 15 ± 1.8 | 9.84 ± 0.88 |
| O=C1CCCC=CCCCCCCCCCC1 [Velvione] | – | 0.134 ± 0.12 | – | – | 41.7 ± 2.9 | 43.1 ± 12 | 40.2 ± 13 | 1.02 ± 7.1 | – | – |
| c1ccc(-c2cccc(-c3ccccc3)c2)cc1 [m-Terphenyl] | – | 0.761 ± 0.18 | 2.42 ± 4.8 | 34.3 ± 1.4 | 90.2 ± 24 | 86.8 ± 18 | 101 ± 37 | 1.91 ± 3.3 | 2.9 ± 2.5 | 2.74 ± 2.4 |
| c1ccc(-c2ccccc2-c2ccccc2)cc1 [o-Terphenyl] | – | 12.9 ± 2.8 | 19.9 ± 5.7 | – | 81.9 ± 26 | 81.5 ± 8.2 | 88.8 ± 18 | 2.44 ± 1.2 | 2.46 ± 0.63 | 2.62 ± 0.75 |
| Cc1ccccc1N [o-Toluidine] | – | 6.06 ± 3.9 | 6.06 ± 5.9 | 17.2 ± 2.6 | 0.669 ± 0.41 | 0.533 ± 0.3 | 0.369 ± 0.35 | 4.67 ± 6.8 | 1.92 ± 0.63 | 1.2 ± 0.91 |
| Cc1ccc(S(N)(=O)=O)cc1 [p-Toluenesulfonamide] | – | – | – | 77.9 ± 3.1 | 2.17 ± 0.29 | 1.8 ± 0.5 | 2.08 ± 0.47 | 51.8 ± 5.5 | 55.4 ± 4.7 | 52.8 ± 0.84 |
